Results published in patent US11771084B2, “Preservation of personal care compositions” (SHARON LABORATORIES LTD., priority 2018, dated 2023).
Values after ≈ are worked out from the molar mass of the structure shown. Like-named read-outs stand apart in the source and are kept apart here.

Tests used:
[1] = Maltol shielding: absorbance at 410 nm, chelators, stainless steel 316; assay type: physicochemical; settings: 0.5% solution of 90% Maltol and 10% Polyquaternium-80 in demineralized water, stainless steel 316 chip 12 hr
Description: Maltol has a metal chelating property. It can bond with metal ions and form a chelate product that can be strongly colored. This reaction is highly likely to happen when maltol is used in a manufacturing process involving steel based equipment. It means that even small quantities of these chelates could induce an undesirable color in a finished cosmetic product. A way to inhibit this phenomenon would be to add to maltol a small quantity of a stronger chelating agent, in order to intercept possible metal ions before Maltol could do so. Thus, an examination of various chelating agents in order to “protect” the Maltol from chelating metal ions was done. Procedure: […]

S. aureus ATCC 6538 = assay: MIC evaluation test; assay type: cell-based, Staphylococcus aureus
Procedure: (§1) The culture is standardized using standard microbiological techniques to have a concentration of very near 1 million cells per milliliter.
(§2) The antimicrobial agent is diluted a number of times, with Tryptic soy broth or sabouraud broth for fungi. After the antimicrobial agent had been diluted, a volume of the standardized inoculums was added to each dilution vessel, bringing the microbial concentration to approximately 1,000,000 cells per milliliter. The inoculated, serially diluted antimicrobial agent was incubated at an appropriate temperature for the test organism, 24 hours for bacteria 48 for yeast and 72 for mold.
(§3) MIC results are expressed in ppm.
(§4) The microorganism strains used for the test were E. coli ATCC 8739, P. aeruginosa ATCC 9027, S. aureus ATCC 6538, C. albicans ATCC 10231, A. niger ATCC 16404.

E. coli ATCC 8739 = assay: MIC evaluation test; assay type: cell-based, Escherichia coli
Procedure: as §1, §2, §3, §4

P. aeruginosa ATCC 9027 = assay: MIC evaluation test; assay type: cell-based, Pseudomonas aeruginosa
Procedure: as §1, §2, §3, §4

A. niger ATCC 16404 = assay: MIC evaluation test; assay type: cell-based, Aspergillus brasiliensis (niger)
Procedure: In another exemplary procedure, MIC evaluation test with A. niger was performed in test tubes. Growth in this case is visually evaluated. A pure culture of a single microorganism was grown in Tryptic soy broth, or sabouraud broth for yeast and mold.
as §1, §2, §3, §4

C. albicans ATCC 10231 = assay: MIC evaluation test; assay type: cell-based, Candida albicans
Procedure: In additional exemplary procedure, minimum inhibitory concentration (MIC) evaluation test with Candida albicans was performed in test tubes. Growth in this case is visually evaluated. A pure culture of a single microorganism was grown in Tryptic soy broth, or sabouraud broth for yeast and mold.
as §1, §2, §3, §4

[2] = formulation on stainless steel 304
Procedure: Procedure: To a 0.5% solution of 90% Maltol and 10% Polyquaternium-80 in demineralized water a chelating agent was added in concentrations of 25 ppm, 50 ppm, 100 ppm, 150 ppm, 200 ppm and 250 ppm, then a chip of stainless steel 316 (˜1×1 cm) was added to the solution for 12 hr.
The absorbance at 410 nm was measured with spectrophotometer Genesys 10uv (Thermo Scientific), the blank was a solution of 0.5% 90% Maltol and 10% Polyquaternium-80 in demineralized water.

[3] = Staphylococcus aureus, ATCC6538
[4] = Pseudomonas aeruginosa, ATCC9027

Compound	absorbance at 410 nm ([1]; chelator Concentration (%) 0.5)	absorbance at 410 nm ([1]; chelator Concentration (%) 1)	absorbance at 410 nm ([1]; chelator Concentration (%) 2)	absorbance at 410 nm ([1]; chelator Concentration (%) 3)	absorbance at 410 nm ([1]; chelator Concentration (%) 4)	absorbance at 410 nm ([1]; chelator Concentration (%) 5)	also measured
CCCCCCCCCCCC[N+](C)(C)Cc1ccccc1.[Cl-] [Benzyldimethyldodecylammonium chloride]							MIC (S. aureus ATCC 6538; [3]): < 60 µg/mL; MIC (E. coli ATCC 8739; Escherichia coli, ATCC8739): < 60 µg/mL; MIC (P. aeruginosa ATCC 9027; [4]): 120 µg/mL; MIC (A. niger ATCC 16404; Aspergillus niger, ATCC16404): < 60 µg/mL; MIC (C. albicans ATCC 10231; Candida albicans, ATCC10231): < 60 µg/mL
CCCCCCCCCC[N+](C)(C)CCCCCCCCCC.[Cl-] [Didecyldimethylammonium chloride]							MIC (S. aureus ATCC 6538; [3]): < 3 µg/mL; MIC (E. coli ATCC 8739; Escherichia coli, ATCC8739): < 3 µg/mL; MIC (P. aeruginosa ATCC 9027; [4]): 15 µg/mL; MIC (A. niger ATCC 16404; Aspergillus niger, ATCC16404): < 30 µg/mL; MIC (C. albicans ATCC 10231; Candida albicans, ATCC10231): < 30 µg/mL
O=C([O-])CN(CCN(CC(=O)O)CC(=O)O)CC(=O)[O-].[Na+].[Na+] [Disodium EDTA, Ethylenediaminetetraacetic acid disodium salt]	0.022	0.009	0.004	0.002	0	0	absorbance at 410 nm ([2]; chelator Concentration (%) 0.5): 0.061; absorbance at 410 nm ([2]; chelator Concentration (%) 1): 0.010; absorbance at 410 nm ([2]; chelator Concentration (%) 2): 0.026; absorbance at 410 nm ([2]; chelator Concentration (%) 3): 0.007; absorbance at 410 nm ([2]; chelator Concentration (%) 4): 0; absorbance at 410 nm ([2]; chelator Concentration (%) 5): 0
CCCCCCCCCCCC[N+](C)(C)C.[Cl-] [Dodecyltrimethylammonium chloride]							MIC (S. aureus ATCC 6538; [3]): < 60 µg/mL; MIC (E. coli ATCC 8739; Escherichia coli, ATCC8739): < 60 µg/mL; MIC (P. aeruginosa ATCC 9027; [4]): 360 µg/mL; MIC (A. niger ATCC 16404; Aspergillus niger, ATCC16404): 360 µg/mL; MIC (C. albicans ATCC 10231; Candida albicans, ATCC10231): < 60 µg/mL
CCCCCCCCCCCC(=O)N[C@@H](CCCN=C(N)N)C(=O)OCC [Ethyl Lauroyl Arginate]							MIC (S. aureus ATCC 6538): 500 ppm; MIC (E. coli ATCC 8739): 2500 ppm; MIC (P. aeruginosa ATCC 9027): 5000 ppm; MIC (A. niger ATCC 16404): 20000 ppm; MIC (C. albicans ATCC 10231): 10000 ppm
Cc1occc(=O)c1O [Maltol]							MIC (S. aureus ATCC 6538; Staphylococcus aureus, ATCC6538, read-out: MIC): 3800 µg/mL (≈ 30.1 mM); MIC (E. coli ATCC 8739; Escherichia coli, ATCC8739, read-out: MIC): 4000 µg/mL (≈ 31.7 mM); MIC (P. aeruginosa ATCC 9027; Pseudomonas aeruginosa, ATCC9027, read-out: MIC): < 1350 µg/mL; MIC (A. niger ATCC 16404; Aspergillus niger, ATCC16404, read-out: MIC): 3150 µg/mL (≈ 25 mM); MIC (C. albicans ATCC 10231; Candida albicans, ATCC10231, read-out: MIC): 2250 µg/mL (≈ 17.8 mM)
O=C([O-])[C@H](O)[C@@H](O)[C@H](O)[C@H](O)CO.[Na+] [Sodium gluconate]	0.022	0.04	0.042	0.045	0.005	0.006	
Zinc gluconate	0.231	0.136	0.207	0.096	0.147	0.058	

Now from value to compound, other results behind:

absorbance at 410 nm ([1]; chelator Concentration (%) 0.5)	absorbance at 410 nm ([1]; chelator Concentration (%) 1)	absorbance at 410 nm ([1]; chelator Concentration (%) 2)	absorbance at 410 nm ([1]; chelator Concentration (%) 3)	absorbance at 410 nm ([1]; chelator Concentration (%) 4)	absorbance at 410 nm ([1]; chelator Concentration (%) 5)	Compound	also measured
0.182	0.162	0.145	0.155	0.101	0.06	O=C1O[C@H]([C@@H](O)CO)C(O)=C1O [Ascorbic acid]	
0.133	0.039	0.045	0.124	0.067	0.098	O=C(O)CCN(CC(=O)O)CC(=O)O [Beta Alanine diAcetic acid]	
0.113	0.391	0.393	0.102	0.311	0.096	CSCC[C@H](N)C(=O)O [L-Methionine]	
0.073	0.044	0.386	0.226	0.078	0.12	COc1cc(C(=O)[O-])ccc1O.[Na+] [Sodium vanillate]	
0.037	0.053	0.062	0.05	0.159	0.048	COc1cc(C=O)ccc1O [Vanillin]	
